From PubChem BioAssay (NCI)
Where “and” joins values, the source holds several entries; their conditions need not be identical. Equal entries are not always repeated.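 These data come from cells grown in 96-well plates and exposed to compound for 48 hours at five concentrations. Here, GI50 denotes the concentration required for 50% inhibition of growth. TGI denotes the concentration required for complete inhibition of growth.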

Tests used:
Test in all cases: inhibition of tumour cell growth, NCI panel, 48 h
786-0 renal = test system: 786-0 renal
CCRF-CEM leukemia = test system: CCRF-CEM leukemia
DU-145 prostate = test system: DU-145 prostate
HCT-15 colon = test system: HCT-15 colon
KM12 colon = test system: KM12 colon
MDA-MB-231 breast = test system: MDA-MB-231 breast
MDA-MB-435 = test system: MDA-MB-435
NCI/ADR-RES ovarian = test system: NCI/ADR-RES ovarian
SF-268 CNS = test system: SF-268 CNS
UO-31 renal = test system: UO-31 renal

Row | Compound | GI50 (786-0 renal) | TGI (786-0 renal) | GI50 (CCRF-CEM leukemia) | TGI (CCRF-CEM leukemia) [µM] | TGI (DU-145 prostate) [µM] | TGI (HCT-15 colon) [µM] | GI50 (KM12 colon) | TGI (KM12 colon) [µM] | GI50 (MDA-MB-231 breast) | TGI (MDA-MB-231 breast) | GI50 (MDA-MB-435) [µM] | TGI (MDA-MB-435) [µM] | GI50 (NCI/ADR-RES ovarian) | TGI (NCI/ADR-RES ovarian) | GI50 (SF-268 CNS) | TGI (SF-268 CNS) | GI50 (UO-31 renal) [µM] | TGI (UO-31 renal) [µM] | GI50 (DU-145 prostate) [µM] | GI50 (HCT-15 colon) [µM]
1 | COc1ccc(C2c3c(-c4ccccc4)nn(-c4ccccc4)c3Oc3ncn4nc(CC#N)nc4c32)cc1OC (stereo not drawn) | 8.4 µM and 2.09 µM | 20.7 µM and 5.51 µM | 28.6 µM and > 100 µM | > 100 | > 100 | > 100 | 78.2 µM and > 22.1 µM | > 100 | 9.03 µM and 1.77 µM | 22.8 µM and 4.68 µM | > 100 | > 100 | 26.2 µM and 3.6 µM | 67.5 µM and > 45.4 µM | 16.6 µM and 3.29 µM | 42.5 µM and > 36.1 µM | > 100 | > 100 |  | 
2 | CC1=CC(=O)c2ccc(C)cc2C1=O |  | 44.3 µM |  | 12.4 | 35.7 | 27.3 |  | 19.8 |  | 24.2 µM |  | 5.78 |  | > 100 µM |  | 38.4 µM |  | 24.6 |  | 
3 | O=C(O)c1ccccc1Nc1ccc2nnc(-c3ccncc3)n2n1 | 4.64 µM | 19.7 µM | 4.28 µM | > 100 | 25.6 | 66.3 | 7.34 µM | 23.9 | 5.27 µM | 24.2 µM | 4.02 | 23.1 | 18.8 µM | 77.4 µM | 5.6 µM | 29.2 µM | 3.81 | 15.5 | 11.5 | 6.88
4 | Cc1ccc(C2=NN(c3ccc(S(N)(=O)=O)cc3)C(c3cn(-c4ccccc4)nc3-c3ccccc3)C2)cc1 (stereo not drawn) | 4.69 µM | > 100 µM | > 100 µM | > 100 | > 100 | > 100 | 4.27 µM | > 100 | 9.41 µM | 84.4 µM | 10 | > 100 | 11.1 µM | > 100 µM | 25.7 µM | > 100 µM | 5.38 | > 100 | 67.9 | 7.53
5 | C=CCSSc1ncnc2c1ncn2C1OC(CO)C(O)C1O (stereo not drawn) | 2.35 µM | > 86.9 µM | 0.46 µM | 4.5 | > 48.1 | > 100 | 3.24 µM | > 39.9 | 3.76 µM | > 100 µM | 2.38 | > 100 | 3.86 µM | > 100 µM | 5.05 µM | > 58.1 µM | 3.63 | 16.8 | 1.24 | 3.28
6 | O=[N+]([O-])c1cc2c(c([N+](=O)[O-])c1)Nc1ccccc1O2 | 5.81 µM | 39.1 µM | 13.2 µM | > 100 | > 100 | > 100 | 6.68 µM | > 100 | 6.38 µM | 30.7 µM | 8 | > 100 | 3.41 µM | 55.4 µM | 6.53 µM | > 100 µM | 2.76 | 36.5 | 7.32 | 5.49
7 | CC(=O)[O][Bi]([c]1ccccc1)[c]1ccccc1 | 2.96 µM | 9.6 µM | 2.27 µM | 5 | 50.2 | 4.06 | 15.8 µM | 30.1 | 14.4 µM | 28.4 µM | 7.26 | 22.2 | 19.1 µM | 37.5 µM | 14.4 µM | 29.9 µM | 2.08 | 7.01 | 21.3 | 1.92
